# Results published in patent publication US11591604B2, “Gene expression in Bacteroides” (Massachusetts Institute of Technology, priority 2015, dated 2023).
# Tested on: NanoLuc
# Assay: NanoLuc luciferase reporter expression from constitutive promoters and RBSs integrated with pNBU2
# Type: cell-based, B. thetaiotaomicron
# Conditions: RBS combined with promoter PBT1311, NanoLuc reporter, three biological replicates
# Excerpt: FIGS. 1A-1G. Genetic parts to control expression in B. thetaiotaomicron. (FIG. 1A) The ranges of gene expression are shown for the different gene regulation systems provided herein. (FIG. 1B) IntN2 catalyzes stable integration of pNBU2-based expression constructs into one of two attBT2 sites in the B. thetaiotaomicron genome. The two attBT2 sites (attBT2-1 at nucleotide (nt) 6,217,227 and attBT2-2 at nt 6,138,320) are in the 3′ ends of tRNA^Ser genes (BT_t71 and BT_t70, respectively). (FIG. 1C) Constitutive promoters and ribosome binding sites for the construction of gene expression libraries. The putative −33 and −7 regions of the PBT1311 promoter, the Shine-Delgarno sequence, and the start codon are indicated by black boxes. Numbers below the black boxes represent nucleotide locations relative the PBT1311 transcription start site. The 26 nt sequences introduced in the PAM promoters are shown (see also FIGS. 6A-6B). Numbers at the edges of the boxes indicate the PBT1311 nucleotides replaced or the insertion site within the promoter. The location of residues randomized in the rpiL* RBS library are indicated with gray arrows (for library A: nt −14, −13, −12; for library B: nt −21, −18, −15; and for library C: nt −17, −16, −11; nt numbering is relative to the translation start site). (FIG. 1D) Activity was measured for a set of constitutive promoters and their cognate RBSs. Furthermore, a set of constitutive promoters (PBT1311, PAM1, PAM2, PAM3, PAM4) was combined with RBSs of varying strengths. Gene expression was measured using a luciferase reporter (NanoLuc). (FIG. 1E) Three large RBS libraries were constructed and combined with promoter PBT1311 to span 10^3-fold in gene expression. For reference, the parent rpiL* RBS is indicated with a black arrow. For D and E, error bars represent the standard deviation of three independent biological replicates made on separate days. (FIG. 1F) The strength of each RBS was compared to the predicted free energy of folding for the mRNA (ΔGfold,). (FIG. 1G) Strong (SEQ ID NO: 210) and weak (SEQ ID NO: 211) consensus sequences for the rpiL* −21 to −11 RBS region targeted by mutagenesis (residue locations are stated relative to the translation start site) are provided. Frequency logos were generated for the 11 strongest and 11 weakest RBSs by comparing the frequency of each nucleotide at each position in that group with the frequency of that nucleotide in that position in the full library. Position −20 and −19 were not randomized and are thus are not shown in the frequency logos.
# All genetic parts in this study were characterized using the integration vector pNBU2 to ensure genetic stability of the constructs (FIG. 1B). The pNBU2 plasmid encodes the intN2 tyrosine integrase, which mediates sequence-specific recombination between the attN site of pNBU2 and one of two attBT sites located in the 3′ ends of the two tRNA^Ser genes, BT_t70 and BT_t71, on the B. thetaiotaomicron chromosome (FIG. 1B). Insertion of the pNBU2 plasmid inactivates the tRNA^Ser gene, and simultaneous insertion into both BT_t70 and BT_t71 is unlikely due to the essentiality of tRNA^Ser. pNBU2-based vectors have been used for single-copy complementation in B. thetaiotaomicron in in vitro studies (Koropatkin N M et al. Nat. Rev. Microbiol. 10:323-35, 2012) and in vivo mouse models (Martens E C et al. Cell Host Microbe 4:447-57, 2008).
# B. thetaiotaomicron genetic parts were characterized with NanoLuc luciferase (Hall M P et al. ACS Chem. Biol. 7:1848-1857, 2012), which is a small (19 kDa) modified shrimp luciferase. Efforts to use members of the green fluorescent protein family and a FMN-based fluorescent reporter were not successful. NanoLuc oxidizes the exogenously-added substrate furimazine to produce glow-type bioluminescence (Emax=460 nm) with a signal half-life of 2 hr. […]
row,Substance,Average Luminescence (RLU/CFU)
1,"A2: RBS, SEQ ID NO: 15 (DNA TCCCGCATTTTAAAATAAAATAAATTATTTTTTTACTTAAACGAAT; chemistry not fully specified)",0.03616
2,"A3: RBS, SEQ ID NO: 24 (DNA TCCCGCATTTTAAAATAAAATAAATTATTAGTTTAGTTAAACGAAT; chemistry not fully specified)",0.02867
3,"A4: RBS, SEQ ID NO: 29 (DNA TCCCGCATTTTAAAATAAAATAAATTATTAATTTAATTAAACGAAT; chemistry not fully specified)",0.02664
4,"A5: RBS, SEQ ID NO: 32 (DNA TCCCGCATTTTAAAATAAAATAAATTATTTCTTTACTTAAACGAAT; chemistry not fully specified)",0.02579
5,"A6: RBS, SEQ ID NO: 33 (DNA TCCCGCATTTTAAAATAAAATAAATTATTTCTTTAATTAAACGAAT; chemistry not fully specified)",0.0256
6,"A7: RBS, SEQ ID NO: 34 (DNA TCCCGCATTTTAAAATAAAATAAATTATTAGTTTAATTAAACGAAT; chemistry not fully specified)",0.02467
7,"A8: RBS, SEQ ID NO: 44 (DNA TCCCGCATTTTAAAATAAAATAAATTATTAGTTTATTTAAACGAAT; chemistry not fully specified)",0.02026
8,"A9: RBS, SEQ ID NO: 46 (DNA TCCCGCATTTTAAAATAAAATAAATTATTGTTTTACTTAAACGAAT; chemistry not fully specified)",0.0186
9,"A10: RBS, SEQ ID NO: 49 (DNA TCCCGCATTTTAAAATAAAATAAATTATTGCTTTAGTTAAACGAAT; chemistry not fully specified)",0.01835
10,"A12: RBS, SEQ ID NO: 56 (DNA TCCCGCATTTTAAAATAAAATAAATTATTGTTTTAATTAAACGAAT; chemistry not fully specified)",0.01552
11,"A13: RBS, SEQ ID NO: 58 (DNA TCCCGCATTTTAAAATAAAATAAATTATTGATTTACTTAAACGAAT; chemistry not fully specified)",0.01484
12,"A14: RBS, SEQ ID NO: 59 (DNA TCCCGCATTTTAAAATAAAATAAATTATTTCTTTATTTAAACGAAT; chemistry not fully specified)",0.01475
13,"A15: RBS, SEQ ID NO: 64 (DNA TCCCGCATTTTAAAATAAAATAAATTATTATTTTACTTAAACGAAT; chemistry not fully specified)",0.01335
14,"A16: RBS, SEQ ID NO: 65 (DNA TCCCGCATTTTAAAATAAAATAAATTATTTATTTACTTAAACGAAT; chemistry not fully specified)",0.01329
15,"A17: RBS, SEQ ID NO: 66 (DNA TCCCGCATTTTAAAATAAAATAAATTATTTTTTTAGTTAAACGAAT; chemistry not fully specified)",0.013
16,"A18: RBS, SEQ ID NO: 69 (DNA TCCCGCATTTTAAAATAAAATAAATTATTCATTTATTTAAACGAAT; chemistry not fully specified)",0.01237
17,"A19: RBS, SEQ ID NO: 70 (DNA TCCCGCATTTTAAAATAAAATAAATTATTTTTTTATTTAAACGAAT; chemistry not fully specified)",0.01206
18,"A20: RBS, SEQ ID NO: 71 (DNA TCCCGCATTTTAAAATAAAATAAATTATTTATTTATTTAAACGAAT; chemistry not fully specified)",0.01179

row,Substance,Average Luminescence (RLU/CFU)
1,"A21: RBS, SEQ ID NO: 73 (DNA TCCCGCATTTTAAAATAAAATAAATTATTTATTTACTTAAACGAAT; chemistry not fully specified)",0.01018
2,"A22: RBS, SEQ ID NO: 78 (DNA TCCCGCATTTTAAAATAAAATAAATTATTGCTTTATTTAAACGAAT; chemistry not fully specified)",0.009586
3,"A23: RBS, SEQ ID NO: 79 (DNA TCCCGCATTTTAAAATAAAATAAATTATTAGTTTACTTAAACGAAT; chemistry not fully specified)",0.009507
4,"A24: RBS, SEQ ID NO: 83 (DNA TCCCGCATTTTAAAATAAAATAAATTATTCTTTTACTTAAACGAAT; chemistry not fully specified)",0.009158
5,"A25: RBS, SEQ ID NO: 84 (DNA TCCCGCATTTTAAAATAAAATAAATTATTCCTTTAATTAAACGAAT; chemistry not fully specified)",0.008671
6,"A26: RBS, SEQ ID NO: 87 (DNA TCCCGCATTTTAAAATAAAATAAATTATTACTTTATTTAAACGAAT; chemistry not fully specified)",0.008113
7,"A27: RBS, SEQ ID NO: 89 (DNA TCCCGCATTTTAAAATAAAATAAATTATTGGTTTAGTTAAACGAAT; chemistry not fully specified)",0.007908
8,"A28: RBS, SEQ ID NO: 94 (DNA TCCCGCATTTTAAAATAAAATAAATTATTCTTTTATTTAAACGAAT; chemistry not fully specified)",0.006884
9,"A29: RBS, SEQ ID NO: 95 (DNA TCCCGCATTTTAAAATAAAATAAATTATTCCTTTATTTAAACGAAT; chemistry not fully specified)",0.006833
10,"A30: RBS, SEQ ID NO: 101 (DNA TCCCGCATTTTAAAATAAAATAAATTATTCCTTTACTTAAACGAAT; chemistry not fully specified)",0.005604
11,"A31: RBS, SEQ ID NO: 103 (DNA TCCCGCATTTTAAAATAAAATAAATTATTGGTTTATTTAAACGAAT; chemistry not fully specified)",0.005462
12,"A32: RBS, SEQ ID NO: 104 (DNA TCCCGCATTTTAAAATAAAATAAATTATTCTTTTAGTTAAACGAAT; chemistry not fully specified)",0.005311
13,"A33: RBS, SEQ ID NO: 106 (DNA TCCCGCATTTTAAAATAAAATAAATTATTTCTTTAGTTAAACGAAT; chemistry not fully specified)",0.005258
14,"A34: RBS, SEQ ID NO: 107 (DNA TCCCGCATTTTAAAATAAAATAAATTATTTGTTTACTTAAACGAAT; chemistry not fully specified)",0.005181
15,"A35: RBS, SEQ ID NO: 110 (DNA TCCCGCATTTTAAAATAAAATAAATTATTCATTTAGTTAAACGAAT; chemistry not fully specified)",0.004513
16,"A36: RBS, SEQ ID NO: 111 (DNA TCCCGCATTTTAAAATAAAATAAATTATTTGTTTAGTTAAACGAAT; chemistry not fully specified)",0.004309
17,"A37: RBS, SEQ ID NO: 113 (DNA TCCCGCATTTTAAAATAAAATAAATTATTTGTTTAATTAAACGAAT; chemistry not fully specified)",0.003964
